Results as given in article PMC3853281, “The Strawberry Pathogenesis-related 10 (PR-10) Fra a Proteins Control Flavonoid Biosynthesis by Binding to Metabolic Intermediates” (The Journal of Biological Chemistry, 2013).

How the values were obtained:
Fra a 2 = target: T1, Fra a 2 (Fragaria x ananassa, UniProt D0E0C6); test: isothermal titration calorimetry; format: binding
T1 construct: gene FRAA2; full-length ORF in pETM11, E. coli BL21(DE3); N-terminal His6 cut by TEV, Ala-Met-Ala left at N-terminus; apparent 28 kDa by SEC-MALLS

Fra a 1E = target: T2, Fra a 1E (Fragaria x ananassa, UniProt Q256S2); test: isothermal titration calorimetry; format: binding
T2 construct: gene FRAA1E.1; full-length ORF in pETM11, E. coli BL21(DE3); N-terminal His6 cut by TEV, Ala-Met-Ala left at N-terminus; monomer, 18 kDa by SEC-MALLS; residues 2-160 modelled
T2 sequence (Q256S2 whole entry, the tested form may be a part): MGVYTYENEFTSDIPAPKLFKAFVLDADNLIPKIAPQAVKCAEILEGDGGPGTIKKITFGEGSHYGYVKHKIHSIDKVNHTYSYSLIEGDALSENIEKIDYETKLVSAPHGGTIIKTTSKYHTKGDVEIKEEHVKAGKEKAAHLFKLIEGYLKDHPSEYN

T1 sequence (D0E0C6 whole entry): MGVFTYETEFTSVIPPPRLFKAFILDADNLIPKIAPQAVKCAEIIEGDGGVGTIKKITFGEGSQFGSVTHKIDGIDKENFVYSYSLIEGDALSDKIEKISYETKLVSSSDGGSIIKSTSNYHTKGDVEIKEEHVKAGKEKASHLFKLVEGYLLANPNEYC

Kd (Fra a 2) | Kd (Fra a 1E) | Compound
19.5 µM | – | O=c1c(O)c(-c2cc(O)c(O)c(O)c2)oc2cc(O)cc(O)c12 [myricetin]
– | 5.3 µM | O=C(O)[C@H]1O[C@@H](Oc2c(-c3ccc(O)c(O)c3)oc3cc(O)cc(O)c3c2=O)[C@H](O)[C@@H](O)[C@@H]1O [Quercetin-3-O-glucuronide]
